Experimental findings from ChEMBL document CHEMBL1127009, “Fibrinogen receptor antagonists containing a gamma-lactam Gly-Asp isostere” (Bioorg Med Chem Lett, 1993) are described below.

For assay [1], the species on record is Homo sapiens. As to the kind of experiment: Inhibition of ADP-induced aggregation of human blood platelets in the presence of fibrinogen. The class given is functional.
Assay [2] has as its target Integrin alpha-IIb/beta-3 (Homo sapiens, UniProt P05106+P08514). As to the kind of experiment: Inhibition of fibrinogen binding to purified immobilized alpha IIb beta-3 integrin isolated from membranes of human blood platelets.

Peptide text beside a SMILES is read from it. * marks the point of attachment. Cbz = O=C(OCc1ccccc1)*

Chain of Integrin alpha-IIb/beta-3 (P05106 27-788 limits assumed): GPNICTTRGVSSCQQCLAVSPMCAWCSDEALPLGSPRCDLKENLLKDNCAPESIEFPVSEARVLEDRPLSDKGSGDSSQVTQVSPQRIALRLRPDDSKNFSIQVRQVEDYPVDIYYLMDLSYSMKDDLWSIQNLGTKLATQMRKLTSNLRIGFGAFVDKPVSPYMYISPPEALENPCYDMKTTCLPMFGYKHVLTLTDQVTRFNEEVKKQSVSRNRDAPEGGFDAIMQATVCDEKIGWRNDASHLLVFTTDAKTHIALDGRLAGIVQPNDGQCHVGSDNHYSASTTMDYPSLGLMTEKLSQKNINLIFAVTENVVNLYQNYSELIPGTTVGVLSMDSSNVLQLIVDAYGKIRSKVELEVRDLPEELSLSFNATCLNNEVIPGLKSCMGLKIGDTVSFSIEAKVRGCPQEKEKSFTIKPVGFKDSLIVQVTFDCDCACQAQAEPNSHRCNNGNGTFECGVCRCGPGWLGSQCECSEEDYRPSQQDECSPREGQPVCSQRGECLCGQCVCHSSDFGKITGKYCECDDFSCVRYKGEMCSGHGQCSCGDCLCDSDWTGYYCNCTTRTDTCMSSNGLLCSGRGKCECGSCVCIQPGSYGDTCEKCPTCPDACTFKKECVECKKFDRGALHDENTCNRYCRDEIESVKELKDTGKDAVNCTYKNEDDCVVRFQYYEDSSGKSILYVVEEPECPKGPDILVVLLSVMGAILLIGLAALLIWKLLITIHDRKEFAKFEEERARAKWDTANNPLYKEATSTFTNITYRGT
Chain of Integrin alpha-IIb/beta-3 (P08514 32-887 limits assumed): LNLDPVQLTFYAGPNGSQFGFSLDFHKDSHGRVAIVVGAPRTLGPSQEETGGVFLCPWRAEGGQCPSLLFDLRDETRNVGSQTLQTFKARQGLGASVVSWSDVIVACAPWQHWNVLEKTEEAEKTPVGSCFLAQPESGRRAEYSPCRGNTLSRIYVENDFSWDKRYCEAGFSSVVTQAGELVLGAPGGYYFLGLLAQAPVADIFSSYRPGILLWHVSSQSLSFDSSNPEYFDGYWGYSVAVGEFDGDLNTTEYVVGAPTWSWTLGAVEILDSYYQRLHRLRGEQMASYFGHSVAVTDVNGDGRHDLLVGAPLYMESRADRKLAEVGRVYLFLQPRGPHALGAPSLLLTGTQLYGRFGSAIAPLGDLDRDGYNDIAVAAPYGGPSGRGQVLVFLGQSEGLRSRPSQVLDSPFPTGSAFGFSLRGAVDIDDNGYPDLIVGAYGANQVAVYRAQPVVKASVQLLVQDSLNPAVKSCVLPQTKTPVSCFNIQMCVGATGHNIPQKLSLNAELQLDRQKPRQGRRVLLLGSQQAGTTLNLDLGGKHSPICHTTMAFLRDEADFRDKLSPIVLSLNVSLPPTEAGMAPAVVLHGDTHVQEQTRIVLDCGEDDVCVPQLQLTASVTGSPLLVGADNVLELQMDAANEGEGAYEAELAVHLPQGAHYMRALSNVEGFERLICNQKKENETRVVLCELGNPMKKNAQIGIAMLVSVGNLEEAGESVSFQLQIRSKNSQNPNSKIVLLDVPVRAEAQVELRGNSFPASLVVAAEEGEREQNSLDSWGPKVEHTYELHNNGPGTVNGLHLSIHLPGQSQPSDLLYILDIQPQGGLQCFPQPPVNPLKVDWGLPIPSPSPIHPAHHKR
Chain of Integrin alpha-IIb/beta-3 (P08514 891-1039 limits assumed): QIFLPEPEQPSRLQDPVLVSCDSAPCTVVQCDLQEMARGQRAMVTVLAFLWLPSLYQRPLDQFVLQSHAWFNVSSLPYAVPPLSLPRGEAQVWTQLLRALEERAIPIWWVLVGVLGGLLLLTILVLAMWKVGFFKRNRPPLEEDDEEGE

On to `COC(=O)[C@H](Cc1ccccc1)NC(=O)[C@H](CC(=O)O)NC(=O)[C@H](C)NC(=O)[C@H](CCCNC(=N)N)NC(=O)OCc1ccccc1`, for which the figures for the IC50 in assay [1] and in assay [2] were over 100000 nM and 78000 nM, respectively.

Consider `N=C(N)c1ccc(CC(=O)N[C@H]2CCN([C@@H](CC(=O)O)C(=O)N[C@@H](CC34CC5CC(CC(C5)C3)C4)C(=O)O)C2=O)cc1`, for which the IC50 is 100 nM in assay [1] and 5 nM in assay [2].

As to `COC(=O)[C@H](Cc1ccccc1)NC(=O)[C@H](CC(=O)O)NC(=O)[C@@H](C)NC(=O)[C@H](CCCN=C(N)N)NC(=O)OCc1ccccc1`, the IC50 in assay [1] and in assay [2] was over 100000 nM each time.

In the case of `CC(C)C[C@H](NC(=O)[C@H](CC(=O)O)N1CC[C@H](NC(=O)[C@H](CCCN=C(N)N)NC(=O)OCc2ccccc2)C1=O)C(=O)O`, the IC50 stood at 12800 nM in assay [1] and 560 nM in assay [2].

As to `COC(=O)[C@H](Cn1ccc2ccccc21)NC(=O)[C@H](CC(=O)O)N1CC[C@H](NC(=O)[C@H](CCCN=C(N)N)NC(=O)OCc2ccccc2)C1=O`, the values for the IC50 in assay [1] and in assay [2] were 25100 nM and 1220 nM, respectively.

Turning to `COC(=O)[C@H](Cn1ccc2ccccc21)NC(=O)[C@H](CC(=O)O)N1CC[C@H](NC(=O)Cc2ccc(C(=N)N)cc2)C1=O`, the values for the IC50 in assay [1] and in assay [2] were 4400 nM and 120 nM, respectively.

For the compound `COC(=O)[C@H](CC12CC3CC(CC(C3)C1)C2)NC(=O)[C@H](CC(=O)O)N1CC[C@H](NC(=O)[C@H](CCCN=C(N)N)NC(=O)OCc2ccccc2)C1=O`, the IC50 in assay [1] is 4000 nM; in assay [2], 510 nM.

In the case of `CC(C)C[C@H](NC(=O)[C@H](CC(=O)O)N1CC[C@H](NC(=O)Cc2ccc(C(=N)N)cc2)C1=O)C(=O)O`, the results for the 50% inhibitory concentration (IC50) in assay [1] and in assay [2] were 360 nM and 40 nM, respectively.

For the compound `COC(=O)[C@H](Cc1ccccc1)NC(=O)[C@H](CC(=O)O)N1CC[C@H](NC(=O)[C@H](CCCN=C(N)N)NC(=O)OCc2ccccc2)C1=O`, the values for the IC50 in assay [1] and in assay [2] were 85100 nM and 770 nM, respectively.

On to `N=C(N)NCCC[C@H](NC(=O)OCc1ccccc1)C(=O)N[C@H]1CCN([C@@H](CC(=O)O)C(=O)N[C@@H](Cn2ccc3ccccc32)C(=O)O)C1=O`, for which the concentration for half-maximal inhibition (IC50) is 10000 nM in assay [1] and 1070 nM in assay [2].

With `CC(C)[C@H](NC(=O)[C@H](CC(=O)O)NC(=O)CNC(=O)[C@H](CCCN=C(N)N)NC(=O)OCc1ccccc1)C(=O)O` (Cbz-RGDV-OH), the IC50 was 3100 nM in assay [1] and 110 nM in assay [2].

`N=C(N)c1ccc(CC(=O)N[C@H]2CCN([C@@H](CC(=O)O)C(=O)N[C@H](C(=O)O)C34CC5CC(CC(C5)C3)C4)C2=O)cc1`: the IC50 in assay [1] came to 40 nM; in assay [2] it was 2 nM.

Turning to `COC(=O)[C@H](CC12CC3CC(CC(C3)C1)C2)NC(=O)[C@H](CC(=O)O)N1CC[C@H](NC(=O)Cc2ccc(C(=N)N)cc2)C1=O`, the IC50 was found to be 360 nM in assay [1] and 20 nM in assay [2].

Consider `N=C(N)c1ccc(CC(=O)N[C@H]2CCN([C@@H](CC(=O)O)C(=O)N[C@@H](Cn3ccc4ccccc43)C(=O)O)C2=O)cc1`, for which the IC50 in assay [1] is 740 nM; in assay [2] it was 20 nM.

For `CC(C)[C@H](NC(=O)[C@@H](CC(=O)O)N1CC[C@H](NC(=O)Cc2ccc(C(=N)N)cc2)C1=O)C(=O)O`, the IC50 in assay [1] and in assay [2] was over 100000 nM each time.

On to `COC(=O)[C@H](Cc1ccccc1)NC(=O)[C@H](CC(=O)O)NC(=O)CNC(=O)[C@H](CCCN=C(N)N)NC(=O)OCc1ccccc1` (Cbz-RGDF-OMe), for which the values for the IC50 in assay [1] and in assay [2] were 13000 nM and 270 nM, respectively.

For `N=C(N)NCCC[C@H](NC(=O)OCc1ccccc1)C(=O)N[C@@H]1CCN([C@@H](CC(=O)O)C(=O)N[C@@H](Cc2ccccc2)C(=O)O)C1=O`, the half-maximal inhibitory concentration (IC50) in assay [1] and in assay [2] was over 100000 nM throughout.
